Source: ChEMBL document CHEMBL1157533 (J Med Chem, 2008)

Tests used:
[1] = Terminal half life in Beagle dog at 0.1 mg/kg, iv by cassette assay; type: ADME, organism-based, Canis lupus familiaris; design: dose 0.1 mg/kg, route intravenous; details: in vivo, read-out: beta t1/2 (converted)
[2] = Volume of distribution at steady state in Beagle dog at 0.1 mg/kg, iv by cassette assay; type: ADME, organism-based, Canis lupus familiaris; design: dose 0.1 mg/kg, route intravenous; details: in vivo, read-out: Vdss
[3] = AUC (0 to 2 hrs) in Beagle dog at 0.1 mg/kg, po by cassette assay; type: ADME, organism-based, Canis lupus familiaris; design: time < 2 hr, dose 0.1 mg/kg, route oral; details: plasma
[4] = biological target: Beta-1 adrenergic receptor (Homo sapiens, UniProt P08588); assay: Agonist activity at human recombinant beta-1 adrenergic receptor expressed in CHO cells assessed as cAMP accumulation by enzyme immuno assay; type: functional, cell-based
Sequence of Beta-1 adrenergic receptor (P08588 whole entry): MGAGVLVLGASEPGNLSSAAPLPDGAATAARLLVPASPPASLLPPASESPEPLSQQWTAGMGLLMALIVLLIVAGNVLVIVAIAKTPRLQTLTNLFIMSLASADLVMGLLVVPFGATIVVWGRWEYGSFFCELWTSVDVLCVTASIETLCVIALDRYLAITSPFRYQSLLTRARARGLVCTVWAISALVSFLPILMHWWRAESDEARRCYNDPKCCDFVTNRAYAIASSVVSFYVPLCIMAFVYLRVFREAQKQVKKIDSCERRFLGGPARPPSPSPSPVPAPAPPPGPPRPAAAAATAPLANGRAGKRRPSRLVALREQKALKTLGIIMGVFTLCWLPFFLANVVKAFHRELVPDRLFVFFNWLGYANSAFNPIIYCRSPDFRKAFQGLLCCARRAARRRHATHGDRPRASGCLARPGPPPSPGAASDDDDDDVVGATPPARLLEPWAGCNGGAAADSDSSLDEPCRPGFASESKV

[5] = Bioavailability in Beagle dog at 0.1 mg/kg, po by cassette assay; type: ADME, organism-based, Canis lupus familiaris; details: in vivo
[6] = AUC (0 to 24 hrs) in Beagle dog at 0.1 mg/kg, iv by cassette assay; type: ADME, organism-based, Canis lupus familiaris; design: time < 24 hr, dose 0.1 mg/kg, route intravenous; details: plasma
[7] = biological target: Beta-3 adrenergic receptor (Homo sapiens, UniProt P13945); assay: Agonist activity at human recombinant beta3 adrenergic receptor expressed in CHO cells assessed as cAMP accumulation by enzyme immuno assay; type: functional, cell-based
Sequence of Beta-3 adrenergic receptor (P13945 whole entry): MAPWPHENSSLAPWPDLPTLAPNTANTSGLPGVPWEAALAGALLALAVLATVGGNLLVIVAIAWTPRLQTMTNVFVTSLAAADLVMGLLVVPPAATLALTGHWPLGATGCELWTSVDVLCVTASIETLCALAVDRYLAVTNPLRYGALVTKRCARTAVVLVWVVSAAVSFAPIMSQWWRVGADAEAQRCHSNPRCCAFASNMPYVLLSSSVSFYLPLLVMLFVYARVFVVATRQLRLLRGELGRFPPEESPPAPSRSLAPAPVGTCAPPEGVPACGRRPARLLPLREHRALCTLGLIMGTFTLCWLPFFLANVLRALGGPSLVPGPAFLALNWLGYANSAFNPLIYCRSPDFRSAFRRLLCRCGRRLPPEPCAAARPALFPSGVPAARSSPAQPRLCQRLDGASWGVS

[8] = Total clearance in Beagle dog at 0.1 mg/kg, iv by cassette assay; type: ADME, organism-based, Canis lupus familiaris; design: dose 0.1 mg/kg, route intravenous; details: in vivo
[9] = Cmax in dog at 0.1 mg/kg, po; type: ADME, organism-based, Canis lupus familiaris; design: dose 0.1 mg/kg, route oral; details: in vivo
[10] = Bioavailability in dog at 0.1 mg/kg, po; type: ADME, organism-based, Canis lupus familiaris; details: in vivo
[11] = Terminal half life in dog at 0.1 mg/kg, iv; type: ADME, organism-based, Canis lupus familiaris; design: dose 0.1 mg/kg, route intravenous; details: in vivo, read-out: beta t1/2 (converted)
[12] = Total clearance in dog at 0.1 mg/kg, iv; type: ADME, organism-based, Canis lupus familiaris; design: dose 0.1 mg/kg, route intravenous; details: in vivo
[13] = AUC (0 to 24 hrs) in rat at 1.0 mg/kg, po; type: ADME, organism-based; design: time < 24 hr, dose 1 mg/kg, route oral; details: plasma
[14] = biological target: Beta-2 adrenergic receptor (Homo sapiens, UniProt P07550); assay: Agonist activity at human recombinant beta2 adrenergic receptor expressed in CHO cells assessed as cAMP accumulation by enzyme immuno assay; type: functional, cell-based
Sequence of Beta-2 adrenergic receptor (P07550 whole entry): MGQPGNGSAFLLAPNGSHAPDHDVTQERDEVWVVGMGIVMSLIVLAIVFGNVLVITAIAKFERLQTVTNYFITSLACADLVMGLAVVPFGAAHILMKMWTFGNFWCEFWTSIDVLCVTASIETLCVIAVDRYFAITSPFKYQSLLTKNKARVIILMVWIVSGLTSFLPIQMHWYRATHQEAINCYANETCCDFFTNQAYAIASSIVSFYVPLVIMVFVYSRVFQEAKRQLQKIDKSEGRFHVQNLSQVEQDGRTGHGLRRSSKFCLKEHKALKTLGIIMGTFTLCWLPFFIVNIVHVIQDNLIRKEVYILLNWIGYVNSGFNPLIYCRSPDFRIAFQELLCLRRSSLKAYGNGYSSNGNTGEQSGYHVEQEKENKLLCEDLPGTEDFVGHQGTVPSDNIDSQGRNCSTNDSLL

[15] = Bioavailability in rat at 1.0 mg/kg, po; type: ADME, organism-based; details: in vivo
[16] = Cmax in rat at 1.0 mg/kg, po; type: ADME, organism-based; design: dose 1 mg/kg, route oral; details: in vivo
[17] = Terminal half life in rat plasma at 1.0 mg/kg, iv; type: ADME, organism-based; design: dose 1 mg/kg, route intravenous; details: read-out: beta t1/2 (converted)
[18] = AUC (0 to 24 hrs) in dog at 0.1 mg/kg, po; type: ADME, organism-based, Canis lupus familiaris; design: time < 24 hr, dose 0.1 mg/kg, route oral; details: plasma
[19] = Total clearance in rat at 1.0 mg/kg, iv; type: ADME, organism-based; design: dose 1 mg/kg, route intravenous; details: in vivo
[20] = Protein binding in Beagle dog serum; type: ADME, cell-free, Canis lupus familiaris; details: read-out: PPB (converted)
[21] = Metabolic stability assessed as intrinsic clearance in dog liver microsome in presence of NADPH-generating system; type: ADME, Canis lupus familiaris; details: liver microsomes

SMILES	EC50 [4] [nM]	EC50 [7] [nM]	further results
CC(C)COc1cc(-c2ccc(C[C@@H](C)NC[C@H](O)c3ccccc3)cc2)ccc1C(=O)O	130	0.041	half-life [1]: 17.7 h; Vd [2]: 30.8 L/kg; AUC(0-t) at 2 h [3]: 0.0002 µg·h/mL; bioavailability [5]: 0.4%; AUC(0-t) at 24 h [6]: 0.0445 µg·h/mL; clearance [8]: 2.34 L/h/kg
C[C@H](Cc1ccc(-c2ccc(C(=O)O)cc2)cc1)NC[C@H](O)c1cccnc1	75	0.49	Cmax [9]: 0.0305 µg/mL; bioavailability [10]: 59.7%; half-life [11]: 6.4 h; clearance [12]: 0.264 L/h/kg; AUC(0-t) at 24 h [13]: 0.103 µg·h/mL; EC50 [14]: > 1000 nM; bioavailability [15]: 25.2%; Cmax [16]: 0.022 µg/mL; half-life [17]: 1.91 h; AUC(0-t) at 24 h [18]: 0.207 µg·h/mL; clearance [19]: 2.06 L/h/kg
CC(C)Oc1cc(-c2ccc(C[C@@H](C)NC[C@H](O)c3cccnc3)cc2)ccc1C(=O)O	80	0.099	EC50 [14]: > 1000 nM
C[C@H](Cc1ccc(-c2ccc(C(=O)O)c(OC3CCCCC3)c2)cc1)NC[C@H](O)c1cccnc1	24	0.069	–
CC(C)Oc1cc(-c2ccc(OCCNC[C@H](O)c3ccccc3)cc2)ccc1C(=O)O	510	2.4	–
CC(C)Oc1cc(-c2ccc(CC(C)(C)NC[C@H](O)c3ccccc3)cc2)ccc1C(=O)O	280	0.91	–
CCCOc1cc(-c2ccc(OCCNC[C@H](O)c3ccccc3)cc2)ccc1C(=O)O	210	1.2	–
CC(C)Oc1cc(-c2ccc(CCNC[C@H](O)c3cccc(O)c3)cc2)ccc1C(=O)O	440	0.062	–
CC(C)Oc1cc(-c2ccc(CCNC[C@H](O)c3ccc(O)c(NS(C)(=O)=O)c3)cc2)ccc1C(=O)O	150	0.26	–
CC(C)Cc1cc(-c2ccc(OCCNC[C@H](O)c3cccc(Cl)c3)cc2)ccc1C(=O)O	15	0.68	–
O=C(O)c1ccc(-c2ccc(OCCNC[C@H](O)c3ccccc3)cc2)cc1OC1CCCCC1	91	0.16	–
CC(C)Oc1cc(-c2ccc(CCNC[C@H](O)c3ccccc3)cc2)ccc1C(=O)O	–	–	fraction unbound [20]: 0.14
COc1cc(-c2ccc(C[C@@H](C)NC[C@H](O)c3ccccc3)cc2)ccc1C(=O)O	83	0.79	–
CCOC(=O)COc1ccc2c(c1)C[C@@H](NC[C@H](O)c1cccc(Cl)c1)CCC2	–	–	fraction unbound [20]: 0.06
CC(C)Oc1cc(-c2ccc(CCN[C@@H](C)[C@H](O)c3ccc(O)cc3)cc2)ccc1C(=O)O	500	0.14	–
CC(C)COc1cc(-c2ccc(OCCNC[C@H](O)c3cccc(Cl)c3)cc2)ccc1C(=O)O	110	0.32	–
CCCOc1cc(-c2ccc(CCCNC[C@H](O)c3cccc(Cl)c3)cc2)ccc1C(=O)O	180	0.7	–
CC(C)Cc1cc(-c2ccc(CCN[C@@H](C)[C@H](O)c3ccccc3)cc2)ccc1C(=O)O	300	0.14	–
CCCOc1cc(-c2ccc(NCCNC[C@H](O)c3cccc(Cl)c3)cc2)ccc1C(=O)O	11	0.21	–

SMILES	EC50 [4] [nM]	EC50 [7] [nM]	further results
CC(C)Oc1cc(-c2ccc(CCNC[C@H](O)c3ccc(N)nc3)cc2)ccc1C(=O)O	130	0.19	EC50 [14]: > 10000 nM
C[C@@H](Cc1ccc(-c2ccc(C(=O)O)cc2)cc1)NC[C@H](O)c1cccc(Cl)c1	12	6	–
CC(C)Oc1cc(-c2ccc(C[C@H](CO)NC[C@H](O)c3ccccc3)cc2)ccc1C(=O)O	> 1000	7.4	–
CC(C)Oc1cc(-c2ccc(CCNC[C@H](O)c3cccc(NS(C)(=O)=O)c3)cc2)ccc1C(=O)O	> 1000	30	–
CC(C)Oc1cc(-c2ccc(OCCNC[C@H](O)c3cccc(Cl)c3)cc2)ccc1C(=O)O	84	0.5	–
CC(C)Oc1cc(-c2ccc(C[C@@H](C)NC[C@H](O)c3cccc(Cl)c3)cc2)ccc1C(=O)O	37	0.19	–
O=C(O)c1ccc(-c2ccc(OCCNC[C@H](O)c3cccc(Cl)c3)cc2)cc1OC1CCCCC1	52	0.27	–
C[C@H](Cc1ccc(-c2ccc(C(=O)O)cc2)cc1)NC[C@H](O)c1ccccc1	22	0.3	EC50 [14]: > 1000 nM
CC(C)Oc1cc(-c2ccc(CCNC[C@H](O)c3cccc(N)c3)cc2)ccc1C(=O)O	> 1000	8.1	–
Nc1ccc([C@@H](O)CNCCc2ccc(-c3ccc(C(=O)O)c(OC4CCCCC4)c3)cc2)cn1	39	0.035	EC50 [14]: 1100 nM
CCCOc1cc(-c2ccc(CCN[C@@H](C)[C@H](O)c3ccccc3)cc2)ccc1C(=O)O	690	0.43	EC50 [14]: > 10000 nM
CC(C)Oc1cc(-c2ccc(CCNC[C@H](O)c3ccc(Cl)cc3)cc2)ccc1C(=O)O	500	2.4	–
C[C@H](Cc1ccc(-c2ccc(C(=O)O)c(OC3CCCCC3)c2)cc1)NC[C@H](O)c1ccccc1	28	0.042	half-life [1]: 0.35 h; Vd [2]: 1.13 L/kg; CLint scaled [21]: < 0.006 L/h/kg; bioavailability [5]: 0%; AUC(0-t) at 24 h [6]: 0.0243 µg·h/mL; clearance [8]: 4.13 L/h/kg
CC(C)Cc1cc(-c2ccc(CCNC[C@H](O)c3cccnc3)cc2)ccc1C(=O)O	> 1000	0.26	–
C[C@H](Cc1ccc(-c2ccc(C(=O)O)cc2)cc1)NC[C@H](O)c1cccc(Cl)c1	13	0.18	–
CCOc1cc(-c2ccc(C[C@@H](C)NC[C@H](O)c3ccccc3)cc2)ccc1C(=O)O	62	0.31	half-life [1]: 9.9 h; Vd [2]: 1.9 L/kg; AUC(0-t) at 2 h [3]: 0.35 µg·h/mL; bioavailability [5]: 73%; AUC(0-t) at 24 h [6]: 0.477 µg·h/mL; clearance [8]: 0.21 L/h/kg
CC(C)COc1cc(-c2ccc(OCCNC[C@H](O)c3ccccc3)cc2)ccc1C(=O)O	400	0.55	–
CC(C)Oc1cc(-c2ccc(CCNC[C@H](O)c3cccc(F)c3)cc2)ccc1C(=O)O	320	2.1	–
CC(C)Oc1cc(-c2ccc(CCNC[C@H](O)c3ccc(N)cc3)cc2)ccc1C(=O)O	> 1000	2.6	–
